Source: ChEMBL document CHEMBL2331473, “Two-component covalent inhibitor” (Bioorg Med Chem, 2013)
Active and inactive are the calls of the source. No cut-off for these calls is given here.

Legend:
Tequatrovirus T4 [1] = assay: Inhibition of Enterobacteria phage T4 DNA polymerase using biotin-labeled oligonucleotide hairpin substrate containing pre-reactive group at 3'-end assessed as loss of hairpin substrate elongation product at 10 uM incubated for 15 mins in presence of 4000 fold-excess of non-specific T7 RNA polymerase by PAGE method and filter binding assay
Tequatrovirus T4 [2] = assay: Inhibition of Enterobacteria phage T4 DNA polymerase using biotin-labeled oligonucleotide hairpin substrate containing pre-reactive group at 3'-end assessed as loss of hairpin substrate elongation product at 10 uM incubated for 15 mins by PAGE method and filter binding assay

O=C(CCCc1ccc2ccc3cccc4ccc1c2c34)NC/C=C/c1cn([C@H]2C[C@H](O)[C@@H](COP(=O)(O)OP(=O)(O)OP(=O)(O)O)O2)c(=O)[nH]c1=O
inhibition (Tequatrovirus T4 [1]): Active
inhibition (Tequatrovirus T4 [2]): 87%
